Series [1] has as its system γ-crystallin. In words: DLS, aggregation of γ-crystallin (stated for γD and γS together). The settings on record: for effect on the large γ-crystallin aggregate: α-crystallin mixed with γD- or γS-crystallin, molar ratio 3:1, one hour at 4° C.; for aggregation of γ-crystallin modified with the agent (DLS): dilute solution, 22° and 37° C. The class given is biochemical. The procedure:
(§1) Scattering intensity was measured at angles between 30° and 90° at 5° intervals, corresponding to a scattering wave vector (q) range between 8.41×10^6 and 2.30×10^7 m^−1. The scattering wave vector is defined as q=4πn sin (θ/2)/λ, where θ is the scattering angle, and λ=514.5, the wavelength of the argon laser in vacuum, and n is 1.33, the refractive index of water. The temperature of the sample was held at constant temperature of 4 to 37±0.1° C. by a circulating water bath.
(§2) The correlation function was analyzed using CONTIN analysis to calculate lag times for the correlation functions at measured angles. The peaks represent the diffusive mode of the proteins. The delay times (τ) were converted to Γ and graphed versus q^2. The slope of the fitted line is the diffusion coefficient (D). The lines are fitted such that the intercept is zero because a non-zero value of q=0 is unphysical. The Γ versus q^2 plots were linear with r^2 values of 0.95 or greater.
(§3) All solutions were filtered with 0.22 μm hydrophobic PVDF membranes (Fisher Scientific) into 10 mm diameter borosilicate glass tubes and sealed. Solutions were allowed to equilibrate for thirty minutes prior to measuring light scattering.
γ-crystallins were subjected to a variety of experimental conditions, including a range of pHs (5, 6, 7, 8, 9, 10, 11), concentrations of KCl (100 mM, 150 mM, 300 mM, 500 mM, 1000 mM) and temperature (4.5° C., 22° C., 37° C.). The pH and salt concentration were adjusted via overnight dialysis at 4° C. and their final concentration adjusted to 1.0 g/L.
It had been hypothesized that disulfide bonds might mediate the observed γ-crystallin aggregates. The DLS of the γ-crystallin proteins was also measured in 5 mM DTT, and in the presence of 1.0 g/L α-crystallin. […] Thus, this hypothesis was incorrect.
Further, the synthesized α-crystallin proteins were mixed with γ-crystallin proteins to determine if the chaperoning ability of α-crystallin disrupts the γ-crystallin aggregates. The α-A and α-B crystallins were each individually mixed with γD- or γS-crystallin in a molar ratio of 3:1, respectively, mimicking the ratio found in the human eye lens. All solutions were allowed to equilibrate for an hour at 4° C.

Series [2] in a line: DLS of individual α-crystallin solutions (size in dilute solution). The class given is physicochemical. The following applies: individual protein solution. The procedure: as §1, §2, §3
Individual solutions of α-A, α-B, γD- and γ-S crystallin proteins were investigated to understand the size scale and how the proteins behave in dilute solution. (Table 1) Temperature had little effect on protein size in solution as measured by DLS.

The test system of series [3] is γ-crystallin. In words: Circular dichroism of modified γ-crystallin (secondary structure). The series is classed as biochemical. The settings on record: 0.5 mg/mL, 22° C., versus native protein. The method, then:
Crystallin samples were dialyzed overnight into 10 mM Na2HPO4/NaH2PO4 buffer pH 6.8 and measured at a concentration of 0.5 mg/mL. CD spectra were measured on a Jasco J715 spectropolarimeter at 22° C. using a quartz cell of 1 mm path length.
On the technique in general: Circular dichroism is the unequal absorption of left and right circularly polarised light.

A further series deals with T1, γS-crystallin (Homo sapiens, UniProt P22914).
T1 construct: 6xHis (N); made in house; host or cells: M15pRep E. coli (pQe1 plasmid from King Labs, MIT)
T1 sequence (P22914 1-178): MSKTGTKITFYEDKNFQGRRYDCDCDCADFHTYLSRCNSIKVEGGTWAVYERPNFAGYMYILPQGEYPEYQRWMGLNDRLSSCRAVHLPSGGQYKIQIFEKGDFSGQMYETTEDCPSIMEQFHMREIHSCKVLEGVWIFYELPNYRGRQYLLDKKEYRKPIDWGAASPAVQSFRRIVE
The experiment in a line: Dynamic light scattering (DLS) of γS-crystallin, hydrodynamic radius of monomer and aggregate. The class given is biochemical. The following applies: for Rh: γS modified with the agent; for Rhf / Rhs: γS; for Rhf: fast mode. The method, then: (§4) The scattering wave vector is defined as q=4πn sin (θ/2)/λ, where θ is the scattering angle, and λ=514.5, the wavelength of the argon laser in vacuum, and n is 1.33, the refractive index of water. The temperature of the sample was held at constant temperature of 4 to 37±0.1° C. by a circulating water bath. The correlation function was analyzed using CONTIN analysis [NT] times for the correlation functions at measured angles. […] The delay times (τ) were converted to Γ and graphed versus q^2. The slope of the fitted line is the diffusion coefficient (D). […] All solutions were filtered with 0.22 μm hydrophobic PVDF membranes (Fisher Scientific) into 10 mm diameter borosilicate glass tubes and sealed. Solutions were allowed to equilibrate for thirty minutes prior to measuring light scattering. […] The pH and salt concentration were adjusted via overnight dialysis at 4° C. and their final concentration adjusted to 1.0 g/L. […] The scattering wave vector is defined as q=4πn sin (θ/2)/λ, where θ is the scattering angle, and λ=514.5, the wavelength of the argon laser in vacuum, and n is 1.33, the refractive index of water. The temperature of the sample was held at constant temperature of 4 to 37±0.1° C. by a circulating water bath. The correlation function was analyzed using CONTIN analysis [NT] times for the correlation functions at measured angles. […] The delay times (τ) were converted to Γ and graphed versus q^2. The slope of the fitted line is the diffusion coefficient (D). […] All solutions were filtered with 0.22 μm hydrophobic PVDF membranes (Fisher Scientific) into 10 mm diameter borosilicate glass tubes and sealed. Solutions were allowed to equilibrate for thirty minutes prior to measuring light scattering.

The target of the next series is T2, γD-crystallin (Homo sapiens, UniProt P07320).
T2 construct: 6xHis (N); made in house; host or cells: M15pRep E. coli (pQe1 plasmid from King Labs, MIT)
T2 sequence (P07320 1-174): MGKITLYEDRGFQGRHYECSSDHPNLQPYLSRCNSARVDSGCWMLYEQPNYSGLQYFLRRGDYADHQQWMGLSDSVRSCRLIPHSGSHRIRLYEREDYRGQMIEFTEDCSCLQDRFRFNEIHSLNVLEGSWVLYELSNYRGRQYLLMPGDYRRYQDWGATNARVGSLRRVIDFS
In words: Dynamic light scattering (DLS) of γD-crystallin, hydrodynamic radius of monomer and aggregate. The class given is biochemical. The settings on record: for Rh: γD modified with the agent; for Rhf / Rhs: γD; for Rhf: fast mode. The procedure:
as §4

Setting [4] is: fast mode (monomer, first Rh column), 22° C.
Where [5] appears, read: slow mode (aggregate), 100 mM NaCl.
[6] abbreviates: slow mode (aggregate), 150 mM NaCl.
The mark [7] stands for this setting: slow mode (aggregate), 300 mM NaCl.
[8] abbreviates: α-crystallin additive, molar ratio 3:1, one hour at 4° C.
Setting [9] is: slow mode, α-crystallin additive, molar ratio 3:1, one hour at 4° C.

On to `[Cl-].[K+]` [KCl], for which, in the series on γ-crystallin [1] (KCl concentrations 400 to 1000 mM), the aggregate formation entry is reported as “aggregate formation was effectively inhibited”. The “reduction in the size of γ-crystallin aggregates” value in the series on γ-crystallin [1] (KCl concentrations of less than 300 nM (so in the source)) was “did not provide a reduction in the size of γ-crystallin aggregates”. In addition, the “reduction of γ-crystallin aggregates” value in the series on γ-crystallin [1] (salt concentrations over 300 mm KCl (so in the source)) was “did reduce γ-crystallin aggregates to individual protein particles”.

Regarding “αA: αA-crystallin, heat shock protein and molecular chaperone, 19.9 kDa”, the values for the Rh in series [2] (4°), in series [2] (22°) and in series [2] (37°) were 12 nm, 12 nm and 13 nm, respectively. The “effect on the large γ-crystallin aggregate” value in the series on γ-crystallin [1] was “the large γ-crystallin aggregate of several hundred nanometers disappeared”.

Turning to Biotin, in the series on γ-crystallin [3], the “secondary structure of modified γ-crystallin (CD spectra)” value (shortened to “secondary structure”) is on record as “showed a sizeable shift upwards as compared with the native structure of the protein”. Moreover, the Rh at γS-crystallin (fast mode (monomer), 37° C.) is 2.8 nm; at γS-crystallin (setting [4]), 2.6 nm; at γS-crystallin (slow mode (aggregate), 22° C.) it was 180 nm; on γS-crystallin (slow mode (aggregate), 37° C.), 210 nm; at γD-crystallin (fast mode (monomer), 37° C.) it was 2.7 nm; at γD-crystallin (setting [4]) it was 2.8 nm. The Rh at γD-crystallin (slow mode (aggregate), 22° C.) stood at 150 nm; on γD-crystallin (slow mode (aggregate), 37° C.), 170 nm. For the same molecule, the “aggregation of γ-crystallin modified with the agent (DLS)” value (“aggregation of γ-crystallin modified” for short) in the series with γ-crystallin [1] is given as “resulted in aggregation”.

`O[C@@H](CS)[C@@H](O)CS` [DTT, reference compound]: the Rhf on γS-crystallin (additive 5 mM DTT) is 3 nm; on γD-crystallin (additive 5 mM DTT), 2.6 nm. For the same molecule, the Rhs on γS-crystallin (slow mode, additive 5 mM DTT) came out at 102 nm; at γD-crystallin (slow mode, additive 5 mM DTT) it was 108 nm. Also, the “effect on the size of the γ-crystallin aggregates” value with γ-crystallin [1] (5 mM DTT) is reported as “had no effect on the size of the γ-crystallin aggregates”.

`CC(=O)O.O=C1CC(S(=O)(=O)O)C(=O)N1O` (stereo not shown) [SA, sulfo-N-hydroxysuccinimide acetate]: the “secondary structure” value in the series on γ-crystallin [3] was “smaller well around 220 nm as compared to the native”. Also, the Rh on γS-crystallin (fast mode (monomer), 37° C.) was found to be 2.5 nm; at γS-crystallin (setting [4]), 2.5 nm; on γS-crystallin (slow mode (aggregate), 22° C.), 92.5 nm; at γS-crystallin (slow mode (aggregate), 37° C.), 90 nm; at γD-crystallin (fast mode (monomer), 37° C.), 2.6 nm; at γD-crystallin (setting [4]), 2.5 nm. Also, the Rh is on record as 82.5 nm at γD-crystallin (slow mode (aggregate), 22° C.) and 85 nm at γD-crystallin (slow mode (aggregate), 37° C.). Further, the “aggregation of γ-crystallin modified” value with γ-crystallin [1] is on record as “did not prevent aggregation”.

As to `[Cl-].[Na+]` [NaCl], the Rhf is 2.7 nm at γS-crystallin (100 mM NaCl); 2.7 nm at γS-crystallin (150 mM NaCl); 2.9 nm at γS-crystallin (300 mM NaCl); 2.6 nm on γS-crystallin (400 mM NaCl); 2.5 nm on γS-crystallin (500 mM NaCl); 2.6 nm at γS-crystallin (1000 mM NaCl). The Rhf at γD-crystallin (100 mM NaCl) came out at 2.8 nm; at γD-crystallin (150 mM NaCl), 2.8 nm; at γD-crystallin (300 mM NaCl), 2.6 nm; at γD-crystallin (400 mM NaCl), 2.7 nm; at γD-crystallin (500 mM NaCl), 2.8 nm; at γD-crystallin (1000 mM NaCl), 2.5 nm. For the same molecule, the Rhs worked out at 104 nm on γS-crystallin (setting [5]); 102 nm on γS-crystallin (setting [6]); 100 nm at γS-crystallin (setting [7]); 108 nm on γD-crystallin (setting [5]); 104 nm on γD-crystallin (setting [6]); 91 nm on γD-crystallin (setting [7]).

For the molecule PEG4, in the series with γ-crystallin [3], the “secondary structure” value is reported as “did not significantly affect the secondary structures”. Further, the Rh amounted to 2.9 nm on γS-crystallin (fast mode (monomer), 37° C.); 2.9 nm on γS-crystallin (setting [4]); 2.9 nm at γD-crystallin (fast mode (monomer), 37° C.); 2.8 nm at γD-crystallin (setting [4]). In the series with γ-crystallin [1], the “aggregation of γ-crystallin modified” value is “showed no aggregation”.

Regarding “αB: αB-crystallin, heat shock protein and molecular chaperone, 20.16 kDa”, the Rhf with γS-crystallin (setting [8]) is reported as 3 nm; with γD-crystallin (setting [8]) it was 3.2 nm. The results for the Rhs with γS-crystallin (setting [9]) and in the series with γD-crystallin (setting [9]) were 19 nm and 17 nm, respectively. In addition, the Rh stood at 12 nm in series [2] (4°), 13 nm in series [2] (22°) and 13 nm in series [2] (37°). In addition, in the series with γ-crystallin [1], the “effect on the large γ-crystallin aggregate” value is reported as “the large γ-crystallin aggregate of several hundred nanometers disappeared”.

These data come from patent US10413529B2, “Methods of inhibiting cataracts and presbyopia” (UNIVERSITY OF MASSACHUSETTS, priority 2013, dated 2019).
